From article PMC6556873, “Rapid Covalent-Probe Discovery by Electrophile-Fragment Screening” (Journal of the American Chemical Society, 2019)
Where two headings read alike, the source gives them in different places.

How the values were obtained:
[1] = in vitro; set-up: species or system CCD841, HEK293; settings: human, hb2 cells, read-out: HB-2 Cells Viability (%)
[2] = in vitro; set-up: species or system HB2, CCD841; settings: human, hek293 cells
[3] = in vitro; set-up: species or system HB2, HEK293; settings: human, ccd841 cells
[4] = molecular target: T1, PCAF (Homo sapiens, UniProt Q92831); set-up: Intact protein LC/MS covalent labelling, fragments in pools of five, 200 uM each, 4 °C; settings: 24 h, 4 °C, pool of five; 200 µM; covalent
T1 construct: gene KAT2B
T1 sequence (Q92831 whole entry, the tested form may be a part): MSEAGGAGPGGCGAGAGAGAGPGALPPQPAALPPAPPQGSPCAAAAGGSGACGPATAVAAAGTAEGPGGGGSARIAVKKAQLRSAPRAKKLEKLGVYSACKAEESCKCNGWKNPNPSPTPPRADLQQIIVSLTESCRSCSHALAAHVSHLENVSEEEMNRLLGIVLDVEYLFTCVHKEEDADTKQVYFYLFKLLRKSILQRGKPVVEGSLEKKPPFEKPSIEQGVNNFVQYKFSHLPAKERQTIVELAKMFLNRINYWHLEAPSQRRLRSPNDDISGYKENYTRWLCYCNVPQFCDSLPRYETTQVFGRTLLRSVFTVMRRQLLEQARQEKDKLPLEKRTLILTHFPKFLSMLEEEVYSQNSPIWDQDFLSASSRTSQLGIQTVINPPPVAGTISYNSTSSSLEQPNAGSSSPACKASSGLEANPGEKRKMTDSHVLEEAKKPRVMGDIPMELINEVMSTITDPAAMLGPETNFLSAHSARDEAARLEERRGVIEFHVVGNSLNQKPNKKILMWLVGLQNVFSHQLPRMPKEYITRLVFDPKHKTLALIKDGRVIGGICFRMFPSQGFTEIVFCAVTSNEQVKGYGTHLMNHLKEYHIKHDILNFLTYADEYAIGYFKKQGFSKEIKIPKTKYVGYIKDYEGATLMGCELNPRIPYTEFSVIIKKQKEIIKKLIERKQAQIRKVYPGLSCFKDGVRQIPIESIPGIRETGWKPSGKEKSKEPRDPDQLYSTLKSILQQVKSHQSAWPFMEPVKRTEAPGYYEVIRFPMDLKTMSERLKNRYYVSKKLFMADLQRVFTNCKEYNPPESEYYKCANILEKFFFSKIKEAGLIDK
Protocol: (§1) Incubations were performed at 200 μM for each compound and 2 μM of protein (10 μM for BSA) for 24 h at 4 °C with moderate shaking. Incubation buffers varied among proteins (PBS pH 7.4 for QSOX1 and BSA; 10 mM HEPES pH 7.5, 0.3 M NaCl, 0.5 mM TCEP for PCAF, UPS8, and NUDT7; […]; 10 mM Na2HPO4 pH 7.5 100 mM NaCl 5 mM β-mercaptoethanol for NV3CP; 20 mM Na phosphate pH 7.5 for NNMT; […]. The reaction was stopped by quenching with formic acid, 0.4% final concentration. Each protein was incubated with the electrophilic library in pools of five compounds per well. The pool’s composition maximized the difference in mass between fragments in the same well. Incubations were performed with each fragment at 200 μM, for 24 h at 4 °C, to allow the screening of proteins that are not stable for long time periods at higher temperatures. Following incubation, we used intact protein [compound left out] chromatography/mass spectrometry (LC/MS) to identify the fragments and quantify their labeling (Figure 3A). […] There was good agreement between the percent of labeling of NUDT7 by 100 random individual compounds and that obtained in pools of five (R^2=0.78; Figure S6 and Data set 2 in the Supporting Information).

[5] = molecular target: T2, NUDT7 (Homo sapiens, UniProt P0C024); set-up: Intact protein LC/MS covalent labelling, fragments in pools of five, 200 uM each, 4 °C; settings: 24 h, 4 °C, pool of five; 200 µM; covalent
T2 construct: residues 14-235, E. coli, pNIC28-Bsa4, N-terminal His6 tag removed by TEV, construct 26672 Da
T2 sequence (P0C024 14-235): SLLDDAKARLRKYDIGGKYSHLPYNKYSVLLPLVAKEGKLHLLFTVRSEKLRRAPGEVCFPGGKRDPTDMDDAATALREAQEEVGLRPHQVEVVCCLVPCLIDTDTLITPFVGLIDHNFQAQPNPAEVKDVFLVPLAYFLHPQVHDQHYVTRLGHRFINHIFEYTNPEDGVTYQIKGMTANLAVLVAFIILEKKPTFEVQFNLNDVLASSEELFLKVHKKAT
Protocol: as §1

[6] = molecular target: T3, BSA (Bos taurus, UniProt P02769); set-up: Intact protein LC/MS covalent labelling, fragments in pools of five, 200 uM each, 4 °C; settings: 24 h, 4 °C, pool of five; 200 µM; covalent
T3 construct: gene ALB
T3 sequence (P02769 whole entry, the tested form may be a part): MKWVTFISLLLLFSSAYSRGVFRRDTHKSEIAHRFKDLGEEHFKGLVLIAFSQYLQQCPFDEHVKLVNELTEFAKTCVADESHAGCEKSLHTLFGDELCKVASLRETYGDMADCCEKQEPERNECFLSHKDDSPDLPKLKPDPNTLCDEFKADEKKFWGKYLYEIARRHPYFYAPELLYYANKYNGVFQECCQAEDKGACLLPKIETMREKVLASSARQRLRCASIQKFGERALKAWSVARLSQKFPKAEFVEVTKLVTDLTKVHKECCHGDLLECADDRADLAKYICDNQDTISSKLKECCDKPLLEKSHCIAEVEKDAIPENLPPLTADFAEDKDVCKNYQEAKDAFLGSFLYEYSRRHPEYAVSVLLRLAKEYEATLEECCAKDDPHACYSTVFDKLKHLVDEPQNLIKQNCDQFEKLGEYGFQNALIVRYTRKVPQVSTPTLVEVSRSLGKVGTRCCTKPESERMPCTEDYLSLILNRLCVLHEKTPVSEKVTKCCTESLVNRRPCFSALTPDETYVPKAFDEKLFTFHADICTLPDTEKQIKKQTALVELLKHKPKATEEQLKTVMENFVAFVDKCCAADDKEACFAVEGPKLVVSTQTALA
Protocol: as §1

Structure (SMILES)	viability at 48 h, 10 µM [1] [%]	viability at 48 h, 10 µM [2] [%]	viability at 48 h, 10 µM [3] [%]	PCAF [4]	NUDT7 [5]	BSA [6]
CC1CCN(c2ccc(NC(=O)CCl)cc2)CC1.Cl [PCM-0102235]	21.9	18.9	48.3	0	0	0
CN(Cc1c(F)cccc1Cl)C(=O)CCl [PCM-0102184]	9.3	4.9	42.2	0		0
Cc1cccc(N2CCN(C(=O)CCl)CC2)c1C [PCM-0102215]	7.5	11.1	43.8	0	0.29	0
O=C(CCl)Nc1c(Cl)cccc1Cl [PCM-0102234]	96.3	101	77.5	0.45	0.64	0
C=CC(=O)NC1(c2nc(C)cs2)CCOCC1 [PCM-0102601]	103	109	102	0	0	0
C=CC(=O)N1CCn2c(cc3c(Cl)cccc32)C1 [PCM-0102835]	83.4	69.7	91.6	0	0	0
CN(C)c1ccc(NC(=O)CCl)cc1.Cl [PCM-0102859]	105	87	110	0	0	0.22
C=CC(=O)NCc1cnc(C)s1 [PCM-0102587]	107	83.2	111	0	0	0.24
C=CC(=O)N1CCC(NC(=O)c2cc(C)on2)CC1 [PCM-0102557]	101	83.7	101	0	0	0
COc1ccc(NC(=O)NC(=O)CCl)cc1 [PCM-0102268]	63.7	65	70.4	0	0	0
C=CC(=O)N1CCn2c(cc3cc(Cl)ccc32)C1 [PCM-0102661]	81.5	87.1	109	0	0	0.18
O=C(CCl)NNc1ccccn1 [PCM-0102319]	106	94.6	106	0	0	0
C=CC(=O)Nc1ccc(C)c(F)c1 [PCM-0102878]	102	78.8	97.9	0	0	0
O=C(CCl)Nc1ccccc1O [PCM-0102907]	106	80.8	95.4	0	0.36	0
Cc1ccc(C(=O)NNC(=O)CCl)cc1 [PCM-0102924]	97.6	268	123	0	0	0
O=C(CCl)N1CC=C(c2c[nH]c3ccccc23)CC1 [PCM-0102631]	15.3	46.3	77.7	0		0
Cc1cc(NC(=O)CCl)ccc1Br [PCM-0102770]	2.5	1.6	15.6	0	0.21	0
CC(=O)c1sc2nc(C)cc(C)c2c1NC(=O)CCl [PCM-0102108]	103	101	99	0	0	0
